Our source for the EC50 values is patent publication US20250320252A1 (The Scripps Research Institute, priority 2021, published 2025).

One assay has as its target T1, human GLP-1R (Homo sapiens, UniProt P43220).
T1 construct: expressed in transfected cells
The assay can be described thus: In vitro receptor activation reporter assay (CRE-Luc), HEK293-GLP-1R-CRE. Type of assay: cell-based. A general note: In a reporter assay the amount or activity of a reporter protein is the signal.

The next assay addresses T2, human GIPR (Homo sapiens, UniProt P48546).
T2 construct: expressed in transfected cells
T2 sequence (P48546 22-466): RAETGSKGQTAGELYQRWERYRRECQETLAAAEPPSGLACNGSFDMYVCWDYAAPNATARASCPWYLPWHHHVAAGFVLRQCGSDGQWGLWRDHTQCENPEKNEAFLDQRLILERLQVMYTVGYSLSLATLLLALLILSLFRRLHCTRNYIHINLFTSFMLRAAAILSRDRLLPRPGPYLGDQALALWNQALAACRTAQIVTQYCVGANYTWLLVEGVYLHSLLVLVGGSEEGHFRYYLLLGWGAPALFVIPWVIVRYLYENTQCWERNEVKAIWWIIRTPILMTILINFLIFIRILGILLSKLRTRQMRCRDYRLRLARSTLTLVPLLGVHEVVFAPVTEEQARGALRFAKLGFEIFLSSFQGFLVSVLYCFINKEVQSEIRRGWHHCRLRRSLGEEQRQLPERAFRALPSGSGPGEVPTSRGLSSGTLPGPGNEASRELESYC
Description: In vitro receptor activation reporter assay (CRE-Luc), HEK293-GIPR-CRE. Type of assay: cell-based. The following applies: read-out: EC50 [nM] GIPR.

The structures appear in SMILES notation. Read-outs that look alike come from different tables or passages of the source. Numbered stars: 1 amine (or outer) side, 2 acyl side, 3 side chain; on linkers, the order of the positions; unused ones are H or OH. Bridge positions count the residues as written; N and C are the ends. Square brackets hold non-standard residues; d marks the D form. Peptide text beside a SMILES is read from it. X2 = O=C(O)CCCCCCCCCCCCCCCCCCC(=O)N[C@@H](CCCCNC(=O)CCOCCOCCNC(=O)CCOCCOCCNC(=O)CCC(=O)N(CCNC(=O)C[*:1])CCNC(=O)C[*:2])C(=O)O; Aib = CC(C)(N)C(=O)O

T1 sequence (P43220 24-463): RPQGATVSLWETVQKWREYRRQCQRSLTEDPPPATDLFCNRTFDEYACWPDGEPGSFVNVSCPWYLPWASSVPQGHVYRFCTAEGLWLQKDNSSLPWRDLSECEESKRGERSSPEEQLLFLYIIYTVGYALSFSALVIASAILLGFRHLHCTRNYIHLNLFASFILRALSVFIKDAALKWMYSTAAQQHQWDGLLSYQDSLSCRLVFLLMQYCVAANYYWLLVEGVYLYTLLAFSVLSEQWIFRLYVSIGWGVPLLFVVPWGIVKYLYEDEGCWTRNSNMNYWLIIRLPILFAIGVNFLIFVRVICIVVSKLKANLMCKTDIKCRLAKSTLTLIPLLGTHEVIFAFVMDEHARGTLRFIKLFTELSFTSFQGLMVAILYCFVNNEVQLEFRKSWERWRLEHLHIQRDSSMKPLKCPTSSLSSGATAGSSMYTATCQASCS
Description for human GIPR: HEK293 cells were infected with lentivirus encoding firefly luciferase gene under the control of cAMP responsive element (CRE) promoter (Qiagen, The Netherlands) and then were selected using 1 g mL^−1 puromycin (Life Technologies, Carlsbad) for 1 week. The surviving cells (referred to as CRE-HEK293) were expanded and then transfected with a G418 selective mammalian expression plasmid encoding human GLP-1R or GIPR. In brief, GLP-1R or GIPR plasmid was transfected into CRE-HEK293 cells using Lipofectamine 2000 and selected with 400 g mL^−1 Geneticin (Life Technologies, Carlsbad, CA). Single colony stable cell line overexpressing CRE-luciferase and GLP-1R or GIPR (HEK293-GLP-1R-CRE or HEK293-GIPR-CRE) was then established for in vitro activity assay.
(§1) The EC50 of each peptide was determined using GraphPad Prism 6 software (GraphPad, San Diego, CA).
Description for human GLP-1R: as §1
HEK293 cells were infected with lentivirus encoding firefly luciferase gene under the control of cAMP responsive element (CRE) promoter (Qiagen, The Netherlands) and then were selected using 1 g/mL puromycin (Life Technologies, Carlsbad) for 1 week. The surviving cells (referred to as CRE-HEK293) were expanded and then transfected with a G418 selective mammalian expression plasmid encoding human GLP-1R. In brief, GLP-1R plasmid was transfected into CRE-HEK293 cells using Lipofectamine 2000 and selected with 400 g/mL Geneticin (Life Technologies, Carlsbad, CA). Single colony stable cell line overexpressing CRE-luciferase and GLP1R was then established for in vitro activity assay.

For the compound `CC[C@H](C)[C@H](NC(=O)[C@H](CC(C)C)NC(=O)[C@H](Cc1c[nH]c2ccccc12)NC(=O)[C@@H]1CSCC(=O)NCCN(C(=O)CCC(=O)NCCOCCOCCC(=O)NCCOCCOCCC(=O)NCCCC[C@H](NC(=O)CCCCCCCCCCCCCCCCCCC(=O)O)C(=O)O)CCNC(=O)CSC[C@H](NC(=O)[C@H](CCCCN)NC(=O)[C@H](CC(=O)O)NC(=O)[C@H](CC(C)C)NC(=O)[C@H](Cc2ccc(O)cc2)NC(=O)[C@@H](NC(=O)[C@H](CO)NC(=O)[C@H](Cc2ccc(O)cc2)NC(=O)[C@H](CC(=O)O)NC(=O)[C@H](CO)NC(=O)[C@@H](NC(=O)[C@H](Cc2ccc(O)cc2)NC(=O)[C@@H](NC(=O)CNC(=O)[C@H](CCC(=O)O)NC(=O)C(C)(C)NC(=O)[C@@H](N)Cc2ccc(O)cc2)[C@@H](C)O)[C@@H](C)O)[C@@H](C)CC)C(=O)N[C@@H](C)C(=O)N[C@@H](C)C(=O)NC(C)(C)C(=O)N[C@@H](CCC(=O)O)C(=O)N[C@@H](Cc2ccccc2)C(=O)N[C@@H](C(C)C)C(=O)N1)C(=O)N[C@@H](C)C(=O)NCC(=O)NCC(=O)N1CCC[C@H]1C(=O)N[C@@H](CO)C(=O)N[C@@H](CO)C(=O)NCC(=O)N[C@@H](C)C(=O)N1CCC[C@H]1C(=O)N1CCC[C@H]1C(=O)N1CCC[C@H]1C(=O)N[C@@H](CO)C(N)=O` [6Y, 271, C(17-24) - C20L5A, YAibEGT-YTSDY-SIYLD-KXAAAib-EFVXW-LIAGG-PSSGA-PPPS-NH2 (where each X is C)] (H-Y[Aib]EGTYTSDYSIYLDKCAA[Aib]EFVCWLIAGGPSSGAPPPS-NH2; linker 17-24 via X2), the EC50 on human GLP-1R (unnumbered table (Table 10), average of runs, read-out: GLP1R (nM) [EC50] average) worked out at 0.06 nM; on human GLP-1R (unnumbered table (Table 10), run 02/19, read-out: GLP1R (nM) [EC50] 02/19), 0.05 nM; on human GLP-1R (unnumbered table (Table 10), run 3/25, read-out: GLP1R (nM) [EC50] 3/25), 0.07 nM; at human GLP-1R (unnumbered table (Table 10), run 03/26, read-out: GLP1R (nM) [EC50] 03/26), 0.06 nM.
On to `CC[C@H](C)[C@H](NC(=O)[C@H](CC(C)C)NC(=O)[C@H](Cc1c[nH]c2ccccc12)NC(=O)[C@@H]1CSCC(=O)NCCN(C(=O)CCC(=O)NCCOCCOCCC(=O)NCCOCCOCCC(=O)NCCCC[C@H](NC(=O)CCCCCCCCCCCCCCCCCCC(=O)O)C(=O)O)CCNC(=O)CSC[C@H](NC(=O)[C@H](CCCCN)NC(=O)[C@H](CC(=O)O)NC(=O)[C@H](CC(C)C)NC(=O)[C@H](Cc2ccc(O)cc2)NC(=O)[C@@H](NC(=O)[C@H](CO)NC(=O)[C@H](Cc2ccc(O)cc2)NC(=O)[C@H](CC(=O)O)NC(=O)[C@H](CO)NC(=O)[C@@H](NC(=O)[C@H](Cc2ccccc2)NC(=O)[C@@H](NC(=O)CNC(=O)[C@H](CCC(=O)O)NC(=O)C(C)(C)NC(=O)[C@@H](N)Cc2ccc(O)cc2)[C@@H](C)O)[C@@H](C)O)[C@@H](C)CC)C(=O)N[C@@H](C)C(=O)N[C@@H](CCC(N)=O)C(=O)NC(C)(C)C(=O)N[C@@H](C)C(=O)N[C@@H](Cc2ccccc2)C(=O)N[C@@H](C(C)C)C(=O)N1)C(=O)N[C@@H](C)C(=O)N[C@@H](CCC(N)=O)C(=O)NCC(=O)N1CCC[C@H]1C(=O)N[C@@H](CO)C(=O)N[C@@H](CO)C(=O)NCC(=O)N[C@@H](C)C(=O)N1CCC[C@H]1C(=O)N1CCC[C@H]1C(=O)N1CCC[C@H]1C(=O)N[C@@H](CO)C(N)=O` [19Q, 21A, 27I, 29Q, C(17-24) - C20L5A, YAibEGT-FTSDY-SIYLD-KXAQAib-AFVXW-LIAQG-PSSGA-PPPS-NH2 (where each X is C)], for which, on human GIPR (Table 9), the EC50 amounted to 0.02 nM.
Take `CC[C@H](C)[C@H](NC(=O)[C@H](CO)NC(=O)[C@H](Cc1ccc(O)cc1)NC(=O)[C@H](CC(=O)O)NC(=O)[C@H](CO)NC(=O)[C@@H](NC(=O)[C@H](Cc1ccccc1)NC(=O)[C@@H](NC(=O)CNC(=O)[C@H](CCC(=O)O)NC(=O)C(C)(C)NC(=O)[C@@H](N)Cc1ccc(O)cc1)[C@@H](C)O)[C@@H](C)O)C(=O)N[C@@H](Cc1ccc(O)cc1)C(=O)N[C@H]1CSCC(=O)NCCN(C(=O)CCC(=O)NCCOCCOCCC(=O)NCCOCCOCCC(=O)NCCCC[C@H](NC(=O)CCCCCCCCCCCCCCCCC(=O)O)C(=O)O)CCNC(=O)CSC[C@@H](C(=O)N[C@@H](Cc2ccccc2)C(=O)N[C@H](C(=O)N[C@@H](CC(N)=O)C(=O)N[C@@H](Cc2c[nH]c3ccccc23)C(=O)N[C@@H](CC(C)C)C(=O)N[C@@H](CC(C)C)C(=O)N[C@@H](C)C(=O)NCC(=O)NCC(=O)N2CCC[C@H]2C(=O)N[C@@H](CO)C(=O)N[C@@H](CO)C(=O)NCC(=O)N[C@@H](C)C(=O)N2CCC[C@H]2C(=O)N2CCC[C@H]2C(=O)N2CCC[C@H]2C(=O)N[C@@H](CO)C(N)=O)C(C)C)NC(=O)C(C)(C)NC(=O)[C@H](C)NC(=O)[C@H](C)NC(=O)[C@H](CCC(N)=O)NC(=O)[C@H](CCCCN)NC(=O)[C@H](CC(=O)O)NC1=O` [C(14-21) - L5A, YAibEGT-FTSDY-SIYXD-KQAAAib-XFVNW-LLAGG-PSSGA-PPPS-NH2 (where each X is C)]: the EC50 at human GIPR (Table 8) and on human GIPR (Table 9) was 0.03 nM in each case.
With `CC[C@H](C)[C@H](NC(=O)[C@H](CO)NC(=O)[C@H](Cc1ccc(O)cc1)NC(=O)[C@H](CC(=O)O)NC(=O)[C@H](CO)NC(=O)[C@@H](NC(=O)[C@H](Cc1ccccc1)NC(=O)[C@@H](NC(=O)CNC(=O)[C@H](CCC(=O)O)NC(=O)C(C)(C)NC(=O)[C@@H](N)Cc1ccc(O)cc1)[C@@H](C)O)[C@@H](C)O)C(=O)N[C@@H](Cc1ccc(O)cc1)C(=O)N[C@H]1CCCCNC(=O)CN(C(=O)CCNC(=O)CCOCCOCCNC(=O)CCOCCOCCNC(=O)CC[C@H](NC(=O)CCCCCCCCCCCCCCCCC(=O)O)C(=O)O)CC(=O)NCCCC[C@@H](C(=O)N[C@@H](Cc2ccccc2)C(=O)N[C@H](C(=O)N[C@@H](CC(N)=O)C(=O)N[C@@H](Cc2c[nH]c3ccccc23)C(=O)N[C@@H](CC(C)C)C(=O)N[C@@H](CC(C)C)C(=O)N[C@@H](C)C(=O)NCC(=O)NCC(=O)N2CCC[C@H]2C(=O)N[C@@H](CO)C(=O)N[C@@H](CO)C(=O)NCC(=O)N[C@@H](C)C(=O)N2CCC[C@H]2C(=O)N2CCC[C@H]2C(=O)N2CCC[C@H]2C(=O)N[C@@H](CO)C(N)=O)C(C)C)NC(=O)C(C)(C)NC(=O)[C@H](C)NC(=O)[C@H](C)NC(=O)[C@H](CCC(N)=O)NC(=O)[C@H](CCCCN)NC(=O)[C@H](CC(=O)O)NC1=O` [mCLZ715, YAibEGT-FTSDY-SIYXD-KQAAAib-XFVNW-LLAGG-PSSGA-PPPS-NH2 (where each X is K)], at human GLP-1R (Table 7, read-out: EC50 [nM] GLP1R), the EC50 turned out to be 0.02 nM.
